These results are taken from patent publication US6900234B1, “Synergistic therapeutic compositions and methods” (Pfizer, Inc., priority 1990, dated 2005).

Structures are written as SMILES.

One assay deals with Male Hartley guinea pigs. Put plainly: Mean arterial pressure lowering (AOC-MAP) in conscious sodium-depleted guinea pigs after i.v. dosing. Format: in vivo, guinea pig. Set-up: unit not given here. As for the experimental part:
Male Hartley guinea pigs weighing between 250 and 300 g were obtained from Charles River Laboratories, Lakeview, N.J. The guinea pigs were allowed to acclimate to their environment for at least two weeks. Then, they were placed on a low sodium diet (Purina Modified Guinea Pig Chow, no sodium added) for 14 days and were given injections of furosemide (Lasix® 2 mg/kg, i.m.) on three non-consecutive days. At least 24 hours prior to experimentation, the animals were anesthetized with xylazine (Rompun®, 10 mg/kg, s.c.) and ketamine (Vetalar®, 80 mg/kg, i.m.) and, using aseptic technique, cannulae (PE-50) were implanted into the aorta via the right carotid artery for direct measurement of mean arterial pressure (MAP). Cannulae (PE-50) were also placed into the left jugular vein for intravenous compound administration. Both catheters were exteriorized at the intrascapular region of the animal's back and flushed with a heparinized dextrose solution. To prevent the formation of clots, each cannula was filled with heparin at a concentration of 1000 units/ml. After surgery, an antibacterial, trimethoprim/sulfamethoxazole (Di-Trim®, 30 mg/kg, s.c.), was given to the animals. The animals were allowed to recover with water and no-sodium chow administered ad libitum. On the day of the experiment, each guinea pig was given an additional injection of furosemide (6 mg/kg, i.m.) to accelerate sodium loss and was placed in,a sound-proof, ventilated box with one-way glass for observation. Mean arterial pressure was monitored with a Statham 23DB strain gauge pressure transducer previously calibrated using a mercury manometer. The arterial pressure waveform and derived heart rate were continuously recorded on a Grass Model 7D osciliograph. Arterial pressure waveform samples were obtained approximately every 20 seconds using an IBM PS/2 model 30 computer equipped with a custom algorithm designed to calculate mean arterial pressure from the integrated waveform. Values were obtained for a period of at least one hour prior to and 2 hours (usually 4 hours) after dosing. The test compounds were infused intravenously followed by a 250 μl flush with heparinized dextrose solution.
Dose response curves for the renin inhibitor (RI) (0.3 to 3.0 mg/kg, i.v.) and captopril (0.03 to 1.0 mg/kg, i.v.) were obtained (n=4 to 8) in order to quantitate baseline responses to each drug. In experiments where the renin inhibitor and captopril were co-administered, the renin inhibitor was given first immediately followed by captopril. Doses of renin inhibitor and angiotensin converting enzyme inhibitor, when given together, were chosen on the basis of causing submaximal hypotensive effects. Therefore, the contributory effect of each drug could be quantitated by integration and compared to the expected effect to determine whether additive or synergistic responses had occurred.
Employing the procedure described above, the changes in mean arterial pressure (ΔMAP) for the renin inhibitor (RI), the ACE inhibitor (captopril) and the renin inhibitor (RI), plus the ACE inhibitor (captopril) were obtained for various doses and are shown in Table I, below. The AOC-MAP is the area over the dose response curve for each dose calculated using the trapezoidal method.
The data in Table I were obtained by averaging the Δ MAP of all animals for each dose prior to calculating the AOC-MAP. When the data contained in Table I was reviewed for the purpose of calculating the AOC-MAP by averaging the area over the dose response curve for each animal per dose, it was discovered that the AOC-MAP for 0.5 mg/kg RI plus 0.05 mg/kg captopril inadvertently reflected the data based on only three of the six subject test animals. Shown below in Table II are the AOC-MAP data for the experiments reported in Table I, which data is now the result of determining the area over the dose response curve for each animal per dose and averaging the AOC-MAP, as well as determining the standard deviation. […]

For assay [1] the following is noted: reported in Oldham et al., J. Cardiovasc. Pharmacol. 6: 672-677 (1984); cited from earlier work.
Setting [2] is: Table III, 0.30 mg/kg i.v., average of the area for each animal per dose.
Where [3] appears, read: Table III, 1.0 mg/kg i.v., average of the area for each animal per dose.
The mark [4] stands for this setting: Table I, 1.0 mg/kg i.v., ΔMAP of all animals averaged per dose before calculating the area.
[5] abbreviates: Table II, 1.0 mg/kg i.v., average of the area for each animal per dose.

On to `CCCCc1nc(Cl)c(CO)n1Cc1ccc(-c2ccccc2-c2nn[nH]n2)cc1` [Dup 753], for which the AOC-MAP in the assay on Male Hartley guinea pigs (setting [2]) is reported as −125; in the assay on Male Hartley guinea pigs (setting [3]) it was −549; in the assay with Male Hartley guinea pigs (Table III, 3.0 mg/kg i.v., average of the area for each animal per dose), −1575.
As to `CSCC(NC(=O)C(Cc1ccccc1)NC(=O)N1CCOCC1)C(=O)NC(CC1CCCCC1)C(O)C(=O)OC(C)C` (stereo not drawn) [RI, [alpha-R[alpha-R*,beta-S*(S*,S*)]-alpha-hydroxy-beta-[[2-[[2-(4-morpholin-1-carboxamido)-1-oxo-3-phenylpropyl]amino[-3-methylthio-1-oxo-propyl]amino]-cyclohexanebutanoic acid, isopropyl ester], the AOC-MAP in the assay with Male Hartley guinea pigs (Table I, 0.3 mg/kg i.v., ΔMAP of all animals averaged per dose before calculating the area (trapezoidal)) was −256; with Male Hartley guinea pigs (setting [4]), −496; in the assay on Male Hartley guinea pigs (Table I, 3.0 mg/kg i.v., ΔMAP of all animals averaged per dose before calculating the area), −1829; in the assay with Male Hartley guinea pigs (Table II, 0.3 mg/kg i.v., average of the area for each animal per dose), −310; with Male Hartley guinea pigs (setting [5]), −568; in the assay with Male Hartley guinea pigs (Table II, 3.0 mg/kg i.v., average of the area for each animal per dose), −1990.
For the molecule `C[C@H](CS)C(=O)N1CCC[C@H]1C(=O)O` [captopril], the “hypotensive effect of captopril injected during H77 infusion” value in assay [1] was “small additional hypotensive effect”. Moreover, the AOC-MAP was −99 in the assay with Male Hartley guinea pigs (Table I, 0.03 mg/kg i.v., ΔMAP of all animals averaged per dose before calculating the area); −289 with Male Hartley guinea pigs (Table I, 0.10 mg/kg i.v., ΔMAP of all animals averaged per dose before calculating the area); −1263 in the assay on Male Hartley guinea pigs (Table I, 0.30 mg/kg i.v., ΔMAP of all animals averaged per dose before calculating the area); −3272 with Male Hartley guinea pigs (setting [4]); −96 in the assay on Male Hartley guinea pigs (Table II, 0.03 mg/kg i.v., average of the area for each animal per dose); −283 in the assay on Male Hartley guinea pigs (Table II, 0.10 mg/kg i.v., average of the area for each animal per dose). Moreover, the AOC-MAP in the assay with Male Hartley guinea pigs (Table II, 0.30 mg/kg i.v., average of the area for each animal per dose) is reported as −1036; with Male Hartley guinea pigs (setting [5]), −3272; with Male Hartley guinea pigs (Table III, 0.03 mg/kg i.v., average of the area for each animal per dose), −96; in the assay on Male Hartley guinea pigs (Table III, 0.10 mg/kg i.v., average of the area for each animal per dose) it was −269; with Male Hartley guinea pigs (setting [2]), −826; with Male Hartley guinea pigs (setting [3]), −3272.
